Source: ChEMBL document CHEMBL1131484, “Human growth hormone-releasing hormone hGHRH(1-29)-NH2: systematic structure-activity relationship studies” (J Med Chem, 1998)
Values joined by “and” are separate entries in the source; they are usually repeats but may differ in a detail not shown here. Equal values may be shown once. Square brackets hold non-standard residues; d marks the D form. Peptide text beside a SMILES is read from it. αMeY = C[C@](N)(Cc1ccc(O)cc1)C(=O)O; Nle = CCCC[C@H](N)C(=O)O

Biological target: T1, Growth hormone-releasing hormone receptor (Rattus norvegicus) (UniProt Q02644)
T1 sequence (whole entry): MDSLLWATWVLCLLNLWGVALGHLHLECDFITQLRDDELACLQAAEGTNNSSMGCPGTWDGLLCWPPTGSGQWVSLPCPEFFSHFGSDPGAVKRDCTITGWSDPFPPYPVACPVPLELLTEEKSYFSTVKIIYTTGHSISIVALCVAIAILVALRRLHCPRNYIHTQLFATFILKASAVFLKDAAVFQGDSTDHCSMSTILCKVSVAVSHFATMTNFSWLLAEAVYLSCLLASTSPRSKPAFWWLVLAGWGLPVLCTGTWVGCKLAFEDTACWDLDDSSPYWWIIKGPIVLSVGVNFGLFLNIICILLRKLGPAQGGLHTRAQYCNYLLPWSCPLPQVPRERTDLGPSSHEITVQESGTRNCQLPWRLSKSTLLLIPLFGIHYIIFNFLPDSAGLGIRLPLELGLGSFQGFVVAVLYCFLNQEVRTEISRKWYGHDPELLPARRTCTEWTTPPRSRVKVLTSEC
Assay: Potency for growth hormone releasing hormone receptor (GHRFR) relative to human GHRH(1-40)OH- in the rat pituitary cell culture assay
Format: functional, cell-based
Details: Pituitary gland cell

Relative potency | Compound
5.8 | CCCC[C@H](NC(=O)[C@@H](NC(=O)[C@H](CC(=O)O)NC(=O)[C@H](CCC(N)=O)NC(=O)[C@H](CC(C)C)NC(=O)[C@H](CC(C)C)NC(=O)[C@H](CCCCN)NC(=O)[C@H](CCCN=C(N)N)NC(=O)[C@H](C)NC(=O)[C@H](CO)NC(=O)[C@H](CC(C)C)NC(=O)[C@H](CCC(N)=O)NC(=O)[C@H](C)NC(=O)[C@H](CC(C)C)NC(=O)[C@@H](NC(=O)[C@H](CCCCN)NC(=O)[C@H](CCCN=C(N)N)NC(=O)[C@H](Cc1ccc(O)cc1)NC(=O)[C@H](CO)NC(=O)[C@H](CC(N)=O)NC(=O)[C@@H](NC(=O)[C@H](Cc1ccccc1)NC(=O)[C@@H](NC(=O)[C@H](C)NC(=O)[C@H](CC(=O)O)NC(=O)[C@H](C)NC(=O)[C@@](C)(N)Cc1ccc(O)cc1)[C@@H](C)CC)[C@@H](C)O)C(C)C)[C@@H](C)CC)C(=O)N[C@@H](CO)C(=O)N[C@@H](CCCN=C(N)N)C(N)=O (H-[αMeY]ADAIFTNSYRKVLAQLSARKLLQDI[Nle]SR-NH2)
0.05 | H-YAAAIFTNSYRKVLGQLSARKLLQDIMSR-NH2
0.1 | H-YADAAFTNSYRKVLGQLSARKLLQDIMSR-NH2
0 | H-YADAIATNSYRKVLGQLSARKLLQDIMSR-NH2
2.6 | H-YADAIFTNAYRKVLGQLSARKLLQDIMSR-NH2
0.01 | H-YADAIFTNSARKVLGQLSARKLLQDIMSR-NH2
0.01 | H-YADAIFTNSYAKVLGQLSARKLLQDIMSR-NH2
0.06 | H-YADAIFTNSYRKALGQLSARKLLQDIMSR-NH2
0.01 | H-YADAIFTNSYRKVAGQLSARKLLQDIMSR-NH2
0.39 | H-YADAIFTNSYRKVLGQASARKLLQDIMSR-NH2
0.3 | H-YADAIFTNSYRKVLGQLSAAKLLQDIMSR-NH2
0.07 | H-YADAIFTNSYRKVLGQLSARKLAQDIMSR-NH2
1.3 | H-YADAIFTNSYRKVLGQLSARKLLQAIMSR-NH2
1.1 | H-YADAIFTNSYRKVLGQLSARKLLQDAMSR-NH2

Second part, the compound before the results:

Compound | Relative potency
CC[C@H](C)[C@H](NC(=O)[C@H](C)NC(=O)[C@H](CC(=O)O)NC(=O)[C@H](C)NC(=O)[C@@](C)(N)Cc1ccc(O)cc1)C(=O)N[C@@H](Cc1ccccc1)C(=O)N[C@H](C(=O)N[C@@H](CC(N)=O)C(=O)N[C@@H](CO)C(=O)N[C@@H](Cc1ccc(O)cc1)C(=O)N[C@@H](CCCN=C(N)N)C(=O)N[C@@H](CCCCN)C(=O)N[C@H](C(=O)N[C@@H](CC(C)C)C(=O)N[C@@H](C)C(=O)N[C@@H](CCC(N)=O)C(=O)N[C@@H](CC(C)C)C(=O)N[C@@H](CO)C(=O)N[C@@H](C)C(=O)N[C@@H](CCCN=C(N)N)C(=O)N[C@@H](CCCCN)C(=O)N[C@@H](C)C(=O)N[C@@H](CC(C)C)C(=O)N[C@@H](CCC(N)=O)C(=O)N[C@@H](CC(=O)O)C(=O)N[C@H](C(=O)N[C@@H](CCSC)C(=O)N[C@@H](CO)C(=O)N[C@@H](CCCN=C(N)N)C(N)=O)[C@@H](C)CC)C(C)C)[C@@H](C)O (H-[αMeY]ADAIFTNSYRKVLAQLSARKALQDIMSR-NH2) | 25.6
CC[C@H](C)[C@H](NC(=O)[C@H](C)NC(=O)[C@H](CC(=O)O)NC(=O)[C@H](C)NC(=O)[C@@H](N)Cc1ccc(O)cc1)C(=O)N[C@@H](Cc1ccccc1)C(=O)N[C@H](C(=O)N[C@@H](CC(N)=O)C(=O)N[C@@H](CO)C(=O)N[C@@H](Cc1ccc(O)cc1)C(=O)N[C@@H](CCCN=C(N)N)C(=O)N[C@@H](CCCCN)C(=O)N[C@H](C(=O)N[C@@H](CC(C)C)C(=O)NCC(=O)N[C@@H](CCC(N)=O)C(=O)N[C@@H](CC(C)C)C(=O)N[C@@H](CO)C(=O)N[C@@H](C)C(=O)N[C@@H](CCCN=C(N)N)C(=O)N[C@@H](CCCCN)C(=O)N[C@@H](CC(C)C)C(=O)N[C@@H](CC(C)C)C(=O)N[C@@H](CCC(N)=O)C(=O)N[C@@H](CC(=O)O)C(=O)N[C@H](C(=O)N[C@@H](CCSC)C(=O)N[C@@H](C)C(=O)N[C@@H](CCCN=C(N)N)C(N)=O)[C@@H](C)CC)C(C)C)[C@@H](C)O (stereo in doubt; 27) | 1.9
CC[C@H](C)[C@H](NC(=O)[C@H](C)NC(=O)[C@H](CC(=O)O)NC(=O)[C@H](C)NC(=O)[C@@H](N)Cc1ccc(O)cc1)C(=O)N[C@@H](Cc1ccccc1)C(=O)N[C@H](C(=O)N[C@@H](CC(N)=O)C(=O)N[C@@H](CO)C(=O)N[C@@H](Cc1ccc(O)cc1)C(=O)N[C@@H](CCCN=C(N)N)C(=O)N[C@@H](CCCCN)C(=O)N[C@H](C(=O)N[C@@H](CC(C)C)C(=O)NCC(=O)N[C@@H](CCC(N)=O)C(=O)N[C@@H](CC(C)C)C(=O)N[C@@H](CO)C(=O)N[C@@H](C)C(=O)N[C@@H](CCCN=C(N)N)C(=O)N[C@@H](CCCCN)C(=O)N[C@@H](CC(C)C)C(=O)N[C@@H](CC(C)C)C(=O)N[C@@H](CCC(N)=O)C(=O)N[C@@H](CC(=O)O)C(=O)N[C@H](C(=O)N[C@@H](CCSC)C(=O)N[C@@H](C)C(=O)N[C@@H](CCCN=C(N)N)C(N)=O)[C@@H](C)CC)C(C)C)[C@@H](C)O (stereo in doubt; 39) | 2.2
H-AADAIFTNSYRKVLGQLSARKLLQDIMSR-NH2 | 0.01
H-YADAIFANSYRKVLGQLSARKLLQDIMSR-NH2 | 0.29
H-YADAIFTASYRKVLGQLSARKLLQDIMSR-NH2 | 2.1
H-YADAIFTNSYRAVLGQLSARKLLQDIMSR-NH2 | 0.16
H-YADAIFTNSYRKVLAQLSARKLLQDIMSR-NH2 | 5.6
H-YADAIFTNSYRKVLGALSARKLLQDIMSR-NH2 | 1.5
H-YADAIFTNSYRKVLGQLAARKLLQDIMSR-NH2 | 1.6 and 1.4
H-YADAIFTNSYRKVLGQLSARALLQDIMSR-NH2 | 0.27
H-YADAIFTNSYRKVLGQLSARKALQDIMSR-NH2 | 4.7
H-YADAIFTNSYRKVLGQLSARKLLADIMSR-NH2 | 1.3
H-YADAIFTNSYRKVLGQLSARKLLQDIASR-NH2 | 0.32
H-YADAIFTNSYRKVLGQLSARKLLQDIMSA-NH2 | 0.59
